Data from patent publication US12642270B2, “Substituted thiophene carboxamides, thiophene carboxylic acids and derivatives thereof” (Bayer Aktiengesellschaft, priority 2019, dated 2026).

Experiment: Log P by HPLC on reversed phase columns (EEC directive 79/831 Annex V.A8)
Type: physicochemical
How it was run: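 Reversed-phase HPLC per EEC 79/831 Annex V.A8, LC-UV with 10→95% acetonitrile linear gradient; eluent [a] 0.1% formic acid (acidic), [b] 0.001 M ammonium acetate (neutral), [c] 0.1% phosphoric acid (acidic). Calibrated with C3–C16 straight-chain alkan-2-ones, linear interpolation of retention times; multiple values joined by "+".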

SMILES | LogP (method [a]) | LogP (method marked [a])
COC(=O)C(NC(=O)c1cc(Cl)c(Br)s1)C1CC1 (stereo not shown) [1.0259] | 3.01^[a] | –
COC(=O)C(NC(=O)c1cc(Br)c(Cl)s1)C1CC1 (stereo not shown) [1.0260] | 3.07^[a] | –
COC(=O)C(NC(=O)c1sc(C#N)c(Br)c1C)C1CC1 (stereo not shown) [1.0261] | 2.75^[a] | –
COC(=O)C(NC(=O)c1sc(Br)c(Br)c1I)C1CC1 (stereo not shown) [1.0262] | 3.81^[a] | –
COC(=O)C(NC(=O)c1sc(Cl)c(Cl)c1Br)C1CC1 (stereo not shown) [1.0263] | 3.84^[a] | –
COC(=O)C(NC(=O)c1sc(Br)c(Br)c1Cl)C1CC1 (stereo not shown) [1.0264] | 3.84^[a] | –
O=C(NC1(C(=O)O)CC1)c1sc(Cl)c(Br)c1Br [1.0265] | 2.41^[a] | –
CCOC(=O)C(NC(=O)c1sc(Cl)c(Br)c1C)C1CC1 (stereo not shown) [1.0266] | 3.81^[a] | –
COC(=O)C(NC(=O)c1sc(Cl)c(Br)c1C)C(=O)OC [1.0267] | 3.07^[a] | –
CCOC(=O)C(CC1CC1)NC(=O)c1sc(Cl)c(Br)c1C (stereo not shown) [1.0268] | 4.30^[a] | –
COC(=O)C(NC(=O)c1sc(Cl)c(Br)c1C)(C1CC1)C1CC1 [1.0269] | 3.98^[a] | –
CCOC(=O)C(NC(=O)c1sc(Cl)c(Br)c1C)C(=O)OCC [1.0270] | – | 3.87^[a]
CCOC(=O)C1(NC(=O)c2sc(Cl)c(Br)c2C)CN(C(=O)OC(C)(C)C)C1 [1.0271] | – | 4.23^[a]
CCOC(=O)C(NC(=O)c1sc(Br)c(Cl)c1C)C1CC1 (stereo not shown) [1.0272] | – | 3.77^[a]
COC(=O)C(NC(=O)c1sc(Br)c(Cl)c1C)C(=O)OC [1.0273] | – | 3.04^[a]
CCOC(=O)C(CC1CC1)NC(=O)c1sc(Br)c(Cl)c1C (stereo not shown) [1.0274] | – | 4.26^[a]
COC(=O)C(NC(=O)c1sc(Br)c(Cl)c1C)(C1CC1)C1CC1 [1.0275] | – | 3.94^[a]
CCOC(=O)C(NC(=O)c1sc(Br)c(Cl)c1C)C(=O)OCC [1.0276] | – | 3.84^[a]
CCOC(=O)C1(NC(=O)c2sc(Br)c(Cl)c2C)CN(C(=O)OC(C)(C)C)C1 [1.0277] | – | 4.19^[a]
COC(=O)[C@H](CCCNC(=N)N)NC(=O)c1sc(Br)c(Br)c1F [1.0278] | – | 1.66^[a]
CCOC(=O)C(CC(C)C)NC(=O)c1sc(Cl)c(Cl)c1C#N (stereo not shown) [1.0279] | – | 4.05^[a]
CCOC(=O)C(NC(=O)c1sc(Cl)c(Cl)c1C#N)C(C)C (stereo not shown) [1.0280] | – | 3.77^[a]

SMILES | LogP (method [a]) | LogP (method marked [a])
COC(=O)C1(NC(=O)c2cc(Br)c(C#N)s2)CC1 [1.0281] | – | 2.10^[a]
N#Cc1sc(C(=O)NC2(C(=O)O)CC2)cc1Br [1.0282] | – | 1.70^[a]
COC(=O)C1(NC(=O)c2sc(C#N)c(Cl)c2C)CC1 [1.0283] | – | 2.21^[a]
O=C(NC(C(=O)O)C1CC1)c1cc(Cl)c(Br)s1 (stereo not shown) [1.0284] | – | 2.41^[a]
O=C(NC(C(=O)O)C1CC1)c1cc(Br)c(Cl)s1 (stereo not shown) [1.0285] | – | 2.44^[a]
Cc1c(C(=O)NC(C(=O)O)C2CC2)sc(C#N)c1Br (stereo not shown) [1.0286] | – | 2.19^[a]
O=C(NC(C(=O)O)C1CC1)c1sc(Cl)c(Cl)c1Br (stereo not shown) [1.0287] | – | 2.95^[a]
O=C(NC(C(=O)NC(C(=O)O)C1CC1)C1CC1)c1cc(Br)c(Cl)s1 (stereo not shown) [1.0288] | – | 2.49^[a]
O=C(NC(C(=O)NC(C(=O)O)C1CC1)C1CC1)c1sc(Cl)c(Cl)c1Br (stereo not shown) [1.0289] | – | 2.97^[a]
COC(=O)C1(NC(=S)c2sc(C#N)c(Cl)c2C)CC1 [1.0290] | – | 3.04^[a]
Cc1c(C(=O)NC2(C(=O)O)CC2)sc(C#N)c1Cl [1.0291] | – | 1.79^[a]
O=C(NC(C(=O)O)C1CC1)c1sc(Br)c(Br)c1I (stereo not shown) [1.0292] | – | 2.97^[a]
O=C(NC(C(=O)O)C1CC1)c1sc(Br)c(Br)c1Cl (stereo not shown) [1.0293] | – | 2.94^[a]
O=C(NC(C(=O)O)C1CC1)c1sc(Br)c(Br)c1F (stereo not shown) [1.0294] | – | 2.64^[a]
COC(=O)CNC(=O)c1cc(Br)c(F)s1 [1.0295] | – | 2.01^[a]
COC(=O)CNC(=O)c1sc(F)c(Cl)c1C [1.0296] | – | 2.23^[a]
CCOC(=O)CNC(=O)c1sc(F)c(Cl)c1C [1.0297] | – | 2.59^[a]
CCOC(=O)C1(NC(=O)c2sc(F)c(Cl)c2C)CC1 [1.0298] | – | 2.77^[a]
CCOC(=O)C(NC(=O)c1sc(F)c(Cl)c1C)C(C)C (stereo not shown) [1.0299] | – | 3.87^[a]
CCOC(=O)C(CCSC)NC(=O)c1sc(F)c(Cl)c1C (stereo not shown) [1.0300] | – | 3.64^[a]
CCOC(=O)C(Cc1ccccc1)NC(=O)c1sc(F)c(Cl)c1C (stereo not shown) [1.0301] | – | 4.15^[a]
COC(=O)CNC(=O)c1sc(C#N)c(Cl)c1C [1.0302] | – | 2.03^[a]

SMILES | LogP (method [a]) | LogP (method marked [a])
CCOC(=O)CNC(=O)c1sc(C#N)c(Cl)c1C [1.0303] | – | 2.39^[a]
CCOC(=O)C(NC(=O)c1sc(C#N)c(Cl)c1C)C(C)C (stereo not shown) [1.0304] | – | 3.47^[a]
CCOC(=O)C(CCSC)NC(=O)c1sc(C#N)c(Cl)c1C (stereo not shown) [1.0305] | – | 3.28^[a]
CCOC(=O)C(Cc1ccccc1)NC(=O)c1sc(C#N)c(Cl)c1C (stereo not shown) [1.0306] | – | 3.77^[a]
COC(=O)CNC(=O)c1cc(F)c(Cl)s1 [1.0307] | – | 1.94^[a]
CCOC(=O)C1(NC(=O)c2cc(F)c(Cl)s2)CC1 [1.0308] | – | 2.49^[a]
CCOC(=O)C(NC(=O)c1cc(F)c(Cl)s1)C(C)C (stereo not shown) [1.0309] | – | 3.44^[a]
CCOC(=O)C(CCSC)NC(=O)c1cc(F)c(Cl)s1 (stereo not shown) [1.0310] | – | 3.25^[a]
CCOC(=O)CNC(=O)c1cc(Br)c(F)s1 [1.0311] | – | 2.33^[a]
CCOC(=O)C1(NC(=O)c2cc(Br)c(F)s2)CC1 [1.0312] | – | 2.57^[a]
CCOC(=O)C(NC(=O)c1cc(Br)c(F)s1)C(C)C (stereo not shown) [1.0313] | – | 3.54^[a]
CCOC(=O)C(CCSC)NC(=O)c1cc(Br)c(F)s1 (stereo not shown) [1.0314] | – | 3.31^[a]
CCOC(=O)C(Cc1ccccc1)NC(=O)c1cc(Br)c(F)s1 (stereo not shown) [1.0315] | – | 3.77^[a]
COC(=O)CNC(=O)c1sc(F)c(Br)c1C [1.0316] | – | 2.31^[a]
CCOC(=O)CNC(=O)c1sc(F)c(Br)c1C [1.0317] | – | 2.67^[a]
CCOC(=O)C1(NC(=O)c2sc(F)c(Br)c2C)CC1 [1.0318] | – | 2.83^[a]
CCOC(=O)C(NC(=O)c1sc(F)c(Br)c1C)C(C)C (stereo not shown) [1.0319] | – | 3.94^[a]
CCOC(=O)C(CCSC)NC(=O)c1sc(F)c(Br)c1C (stereo not shown) [1.0320] | – | 3.67^[a]
CCOC(=O)C(Cc1ccccc1)NC(=O)c1sc(F)c(Br)c1C (stereo not shown) [1.0321] | – | 4.23^[a]
CCOC(=O)C1(NC(=S)c2sc(Cl)c(Cl)c2Br)CC1 [1.0323] | – | 4.51^[a]
O=C(NC1(C(=O)O)CC1)c1sc(Cl)c(Br)c1Cl [1.0324] | – | 2.41^[a]
CCOC(=O)C1(NC(=S)c2sc(Cl)c(Br)c2Cl)CC1 [1.0325] | – | 4.55^[a]

SMILES | LogP (method [a]) | LogP (method marked [a])
CCOC(=O)CN(OC)C(=O)c1sc(Br)c(Br)c1F [1.0327] | – | 3.37^[a]
COC(=O)C1(NC(=S)c2sc(Br)c(Br)c2F)CC1 [1.0328] | – | 3.91^[a]
O=C(O)C1(NC(=S)c2sc(Br)c(Br)c2F)CC1 [1.0329] | – | 2.95^[a]
COC(=O)[C@H](CCC(=O)O)NC(=O)c1sc(Br)c(Br)c1F [1.0330] | – | 2.36^[a]
CCOC(=O)C1(NC(=S)c2sc(Br)c(Br)c2F)CCC1 [1.0331] | – | 4.74^[a]
COC(=O)C1(NC(=S)c2sc(Cl)c(Br)c2C)CC1 [1.0332] | – | 3.71^[a]
COC(=O)C1(NC(=S)c2sc(Br)c(Br)c2Cl)CC1 [1.0333] | – | 4.11^[a]
COC(=O)C1(NC(=S)c2sc(Cl)c(Cl)c2Br)CC1 [1.0334] | – | 4.06^[a]
COC(=O)C1(NC(=S)c2sc(C#N)c(Br)c2C)CC1 [1.0335] | – | 3.10^[a]
COC(=O)C1(NC(=S)c2cc(Br)c(C#N)s2)CC1 [1.0336] | – | 3.03^[a]
O=C(NC(CC(F)F)C(=O)O)c1sc(Cl)c(Cl)c1Br (stereo not shown) [1.0337] | – | 2.81^[a]
CCOC(=O)C1(NC(=O)c2sc(Br)c(Br)c2C(F)F)CC1 [1.0341] | – | 3.20^[a]
N#CCNC(=O)c1sc(Cl)c(Cl)c1F [1.0342] | – | 2.30^[a]
COC(=O)CNC(=O)c1sc(Cl)c(Cl)c1F [1.0343] | – | 2.43^[a]
CCOC(=O)CNC(=O)c1sc(Cl)c(Cl)c1F [1.0344] | – | 2.83^[a]
CCOC(=O)C(C)NC(=O)c1sc(Cl)c(Cl)c1F (stereo not shown) [1.0345] | – | 3.34^[a]
COC(=O)C(NC(=O)c1sc(Cl)c(Cl)c1F)C1CC1 (stereo not shown) [1.0346] | – | 3.36^[a]
CCOC(=O)C1(NC(=O)c2sc(Cl)c(Cl)c2F)CCC1 [1.0347] | – | 3.70^[a]
CCOC(=O)C(NC(=O)c1sc(Cl)c(Cl)c1F)C(C)C (stereo not shown) [1.0348] | – | 4.37^[a]
COC(=O)C(CC(F)F)NC(=O)c1sc(Cl)c(Cl)c1F (stereo not shown) [1.0349] | – | 3.19^[a]
CCOC(=O)C(CC(C)C)NC(=O)c1sc(Cl)c(Cl)c1F (stereo not shown) [1.0350] | – | 4.63^[a]
CCOC(=O)C(CCSC)NC(=O)c1sc(Cl)c(Cl)c1F (stereo not shown) [1.0351] | – | 3.95^[a]
